Results as given in US20050181474A1, “Transport peptides and uses therefor” (priority 2002, published 2005).

Columns and labels:
[1] = test system: skin; assay: Homing of peptide after intravenous delivery in vivo; parameters: species or system mouse
Procedure: (§1) Another method used was to perfuse murine hearts ex-vivo on a Langendorf apparatus, administer the phage through the coronary circulation, and then rescue the phage that entered the myocardium. In vivo experiments were also done in which phage was injected into the general circulation of a mouse, any phage binding to the vasculature was removed by treatment with an enzyme solution, and then phage that had entered tissue parenchyma were rescued and enriched.

[2] = test system: heart, skeletal muscle, skin, brain; assay: In vivo translocation of peptide-displaying phage into tissue parenchyma; parameters: species or system mouse
Procedure: as §1

[3] = test system: rat aortic and adult human smooth muscle cells; assay: Internalization of rhodamine-labeled peptide into smooth muscle cells; assay type: cell-based; settings: FIG. 3B
Source text: (§2) To test the properties of the peptides defined, small scale synthesis of these peptides was ordered, labeled with rhodamine for fluorescent localization, from the Keck facility at Yale University. They were then used in in vitro and in vivo experiments to investigate the ability of these peptides to enter cells and tissues.
(§3) FIGS. 3A and 3B show pictures depicting highly efficient internalization of these peptides into cells in culture. One such transport peptide is RRGRRRGR.

[4] = test system: parenchyma of the heart (myocardium); assay: Uptake of rhodamine-labeled peptide into heart after coronary infusion; assay type: in vivo, mouse; settings: single pass infusion through the coronary circulation, FIGS. 4A-C
Source text: In experiments designed to test the ability of these peptides to cross the endothelium and enter cells in vivo, synthetic transport peptides labeled with the fluorescent marker rhodamine were infused into the coronary circulation of mice. […] Peptides selected for internalization were capable of internalizing into the myocardium efficiently.
One such transport peptide is RRGRRRGR.

[5] = test system: endothelial cells (HUVEC cells); assay: Internalization of rhodamine-labeled peptide into endothelial cells; assay type: cell-based, human; settings: FIG. 3A
Source text: as §2, §3

GSRHPPL (Transport peptide)
homing (tissue targeting) [1]: appears to significantly target skin

LLAVPAA (Transport peptide)
crossing the blood brain barrier and entry into the brain [2]: appears capable of crossing the blood brain barrier and entry into the brain | translocating phage into tissues ([2]; phage displaying the peptide, heart, skeletal muscle, skin): capable of translocating phage into heart, skeletal muscle, skin

RRGRRRGR (Transport peptide)
uptake (internalization) into smooth muscle cells [3]: efficient uptake | uptake into the parenchyma of the heart [4]: efficient uptake | uptake (internalization) into endothelial cells [5]: efficient uptake
